The record followed here is ChEMBL document CHEMBL4393659, “Insights into the chemistry and therapeutic potential of furanones: A versatile pharmacophore” (Eur J Med Chem, 2019).

As usually defined, the inhibition in vivo is the percentage by which the read-out fell short of the control. Usually ED50 stands for the dose that gives a 50% effect, or the effect in half of the subjects. What is called IC50 is the concentration that inhibits the measured activity by half. Broadly, the inhibition is the drop in the measured response relative to a control, in per cent. As usually defined, the MIC is the lowest concentration found to suppress growth.

Data set [1] relates to Rattus norvegicus. In words: Antiinflammatory activity in Wistar rat assessed as inhibition of carrageenan-induced edema measured upto 4 hrs. Type of data set: functional. A general note: Carrageenan injected into the paw causes an acute inflammation.
The nature of data set [2]: Ulcerogenicity in Wistar rat assessed as gastric lesions. Type of data set: toxicity. The settings on record: in vivo.
Data set [3] relates to Candida albicans. The data set can be described thus: Antifungal activity against Candida albicans assessed as inhibition of fungal cell growth incubated for 72 hrs by disk diffusion method relative to control. Type of data set: functional. On the technique in general: In agar diffusion tests the substance spreads into inoculated agar from a disc or well.
The next data set concerns Diaphania hyalinata. In words: Insecticidal activity against Diaphania hyalinata assessed as reduction in living insects observed after 48 hrs. Type of data set: functional.
Data set [4] concerns Rattus norvegicus. In words: Antiinflammatory activity in Sprague-Dawley rat assessed as inhibition of carrageenan-induced paw edema at 3 mg/kg , po relative to control. Type of data set: functional.
The species named for data set [5] is Rattus norvegicus. The data set can be described thus: Antiarthritic activity in adjuvant-induced Sprague-Dawley rat. Type of data set: functional.
Data set [6] has as its system Rattus norvegicus. In words: Antiinflammatory activity in Sprague-Dawley rat assessed as inhibition of carrageenan-induced paw edema at 3 mg/kg , po incubated for 1 hr followed by carrageenan addition and measured after 4 hrs relative to control. Type of data set: functional.
The target of data set [7] is Prostaglandin G/H synthase 2 (Mus musculus, UniProt Q05769). The data set can be described thus: Inhibition of mouse COX-2 in LPS-induced mouse peritoneal macrophage assessed as reduction in PGE2 release incubated for 2 hrs by ELISA. Background: In an ELISA, binding on a coated surface is turned into a signal by an enzyme label.
Data set [8] can be described thus: Ulcerogenicity in Sprague-Dawley rat assessed as gastric lesions at 50 mg/kg , po bid measured after 4 hrs. In kind it is toxicity, organism-based. Conditions: in vivo.
Data set [9] can be described thus: Antioxidant activity assessed as DPPH radical scavenging activity measured for each 5 mins for 3 hrs. Type of data set: functional.
Data set [10] in a line: Antioxidant activity assessed as superoxide anion scavenging activity at pH 7.4 phosphate buffer incubated for 5 mins by NBT assay. In kind it is functional.
In a further data set the test system is Liver. The data set can be described thus: Antioxidant activity in rat liver microsomes assessed as reduction in ferrous salt/ascorbic acid-induced lipid peroxidation of membrane lipids by measuring malondialdehyde level after 90 mins by spectrophotometry. Type of data set: functional, Microsome. Conditions: 1.5 h.
For data set [11], the system named is A549. The data set can be described thus: Antitumor activity against human A549 cells assessed as inhibition of cell viability at 50 uM by MTT assay. In kind it is functional.
Data set [12] has as its system A549. In words: Antitumor activity against human A549 cells assessed as inhibition of cell viability at 100 uM by MTT assay. Type of data set: functional.
Data set [13] has as its system Aspergillus fumigatus. In words: Antifungal activity against Aspergillus fumigatus assessed as reduction in fungal cell viability by broth dilution method. Type of data set: functional.
Data set [14] concerns Lichtheimia corymbifera. In words: Antifungal activity against Absidia corymbifera assessed as reduction in fungal cell viability by broth dilution method. In kind it is functional.
Data set [15] has as its system Candida albicans. The data set can be described thus: Antifungal activity against Candida albicans ATCC 44859 assessed as reduction in fungal cell viability measured after 24 and 48 hrs by photometry. Type of data set: functional.
For the next data set, the system named is Pichia kudriavzevii. The data set can be described thus: Antifungal activity against Candida krusei E28 assessed as reduction in fungal cell viability measured after 24 and 48 hrs by photometry. Type of data set: functional.
A further data set concerns Candida tropicalis. The data set can be described thus: Antifungal activity against Candida tropicalis 156 assessed as reduction in fungal cell viability measured after 24 and 72 hrs by photometry. Type of data set: functional.
The next data set has as its system Nakaseomyces glabratus. The data set can be described thus: Antifungal activity against Candida glabrata 20/I assessed as reduction in fungal cell viability measured after 24 and 72 hrs by photometry. Type of data set: functional.
The test system of a further data set is Trichosporon beigelii. In words: Antifungal activity against Trichosporon beigelii 1188 assessed as reduction in fungal cell viability measured after 24 and 72 hrs by photometry. In kind it is functional.
In data set [16] the test system is Aspergillus fumigatus. In words: Antifungal activity against Aspergillus fumigatus 231 assessed as reduction in fungal cell viability measured after 24 and 72 hrs by photometry. Type of data set: functional.
Data set [17] has as its system Lichtheimia corymbifera. In words: Antifungal activity against Absidia corymbifera 272 assessed as reduction in fungal cell viability measured after 24 and 72 hrs by photometry. In kind it is functional.
Data set [18] deals with Trichophyton mentagrophytes. In words: Antifungal activity against Trichophyton mentagrophytes 445 assessed as reduction in fungal cell viability measured after 72 and 120 hrs by photometry. In kind it is functional.
The next data set has as its target Phospholipase A2 (Apis mellifera, UniProt P00630). The data set can be described thus: Inhibition of bee venom phospholipase A2 preincubated for 1 hr followed by addition of phosphotidylcholine and 1-palmitoyl-2-(1-14C) palmitoyl further incubated for 10 mins and measured after 15 secs by scintillation counting method.
For data set [19], the system named is Rattus norvegicus. In words: Antiinflammatory activity in po dosed Sprague-Dawley rat assessed as inhibition of carrageenan-induced paw edema incubated for one hour followed by carrageenan addition and measured after 3 hrs. In kind it is functional.
The nature of data set [20]: Cytotoxicity against dog MDCK cells assessed as reduction in cell viability incubated for 24 hrs by MTT assay. Type of data set: cell-based, Canis lupus familiaris. Conditions: read-out: LD50.
The subject of another data set is H5N1 subtype. In words: Antiviral activity against H5N1 virus infected in MDCK cells assessed as virus-induced cytopathogenicity infected for 2 hrs followed by virus washout and incubated for 3 days. Type of data set: functional, organism-based. Conditions: Influenza A virus.
A further data set deals with Berkeleyomyces basicola. The data set can be described thus: Antifungal activity against Thielaviopsis basicola assessed as reduction in fungal spore germination measured between 4 to 24 hrs by inverted microscopy. Type of data set: functional. Conditions: read-out: ED50 (the source's name).
The subject of data set [21] is Globisporangium ultimum. In words: Antifungal activity against Pythium ultimum assessed as reduction in fungal spore germination measured between 4 to 24 hrs by inverted microscopy. In kind it is functional. The settings on record: read-out: ED50 (the source's name).
In the next data set the test system is Fusarium solani. In words: Antifungal activity against Fusarium solani assessed as reduction in fungal spore germination measured between 4 to 24 hrs by inverted microscopy. In kind it is functional. Conditions: read-out: ED50 (the source's name).
For the next data set, the system named is Fusarium oxysporum. In words: Antifungal activity against Fusarium oxysporum assessed as reduction in fungal spore germination measured between 4 to 24 hrs by inverted microscopy. The settings on record: read-out: ED50 (the source's name). In kind it is functional.
A further data set has as its system Rhizoctonia solani. The data set can be described thus: Antifungal activity against Rhizoctonia solani assessed as reduction in fungal germ tube growth measured between 4 to 24 hrs by inverted microscopy. Type of data set: functional. The settings on record: read-out: ED50 (the source's name).
For data set [22], the system named is Rattus norvegicus. The data set can be described thus: Antiinflammatory activity in rat assessed as inhibition of carrageenan-induced paw edema at 20 mg/kg , po incubated for 30 mins followed by carrageenan treatment further incubated for 3 hrs by plethysmometer relative to ibuprofen. In kind it is functional.
The test system of data set [23] is Globisporangium ultimum. The data set can be described thus: Antifungal activity against Pythium ultimum assessed as reduction in fungal cell growth incubated for 48 hrs by broth dilution method. Type of data set: functional.

Converted amounts (≈) assume the structure as drawn.

Sequence of Prostaglandin G/H synthase 2 (Q05769 whole entry): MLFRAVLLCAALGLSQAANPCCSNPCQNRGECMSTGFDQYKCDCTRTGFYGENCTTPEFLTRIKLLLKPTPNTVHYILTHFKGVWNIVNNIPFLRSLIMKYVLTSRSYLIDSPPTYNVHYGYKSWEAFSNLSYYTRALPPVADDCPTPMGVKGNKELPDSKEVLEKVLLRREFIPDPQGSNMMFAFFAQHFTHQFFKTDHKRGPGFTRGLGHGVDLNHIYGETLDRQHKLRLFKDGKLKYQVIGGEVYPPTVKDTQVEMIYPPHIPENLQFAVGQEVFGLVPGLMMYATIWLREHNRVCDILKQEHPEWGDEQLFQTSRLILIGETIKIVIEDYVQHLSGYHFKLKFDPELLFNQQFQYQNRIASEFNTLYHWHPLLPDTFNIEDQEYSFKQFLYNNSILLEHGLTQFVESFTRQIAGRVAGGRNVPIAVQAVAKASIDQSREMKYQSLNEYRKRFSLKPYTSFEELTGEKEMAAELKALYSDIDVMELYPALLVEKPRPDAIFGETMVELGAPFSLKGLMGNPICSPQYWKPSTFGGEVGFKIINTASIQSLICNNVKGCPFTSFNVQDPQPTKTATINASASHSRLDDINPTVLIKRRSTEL
Sequence of Phospholipase A2 (P00630 whole entry): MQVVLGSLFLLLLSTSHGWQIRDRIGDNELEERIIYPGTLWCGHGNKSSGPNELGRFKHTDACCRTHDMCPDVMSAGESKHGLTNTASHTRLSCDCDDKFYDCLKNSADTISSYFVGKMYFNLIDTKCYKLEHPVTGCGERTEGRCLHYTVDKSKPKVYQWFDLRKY

Turning to `O=C1OC(c2ccc3ccccc3c2)=C/C1=C\c1cc2ccc([N+](=O)[O-])cc2nc1Cl`, the “inhibition (INH)” value in the data set with Rattus norvegicus [1] is given as 56 - 63%. For the same compound, the UI in [2] is on record as 0.3.
`O=C1OC(c2ccccc2)=C/C1=C/c1ccc([N+](=O)[O-])cc1`: in the data set on Candida albicans [3], the “growth inhibition (GI)” value was found to be 66%.
With `CC(C)O[C@@H]1OC(=O)[C@@H]2[C@H]1[C@@H]1C=C[C@H]2C1`, the LD50 in the data set on Diaphania hyalinata is 44.51 µM/g.
Consider `CC1(C)OC(c2ccc(S(C)(=O)=O)cc2)=C(c2cccc(F)c2)C1=O`, for which the figures for the inhibition in vivo at 3 mg/kg with Rattus norvegicus [4] and with Rattus norvegicus [6] were 36% and 47%, respectively. Besides, in the data set filed under Rattus norvegicus [5], the median effective dose (ED50) was 0.008 mg/kg/day. Further, in [7], the IC50 was 0.00832 µM. Also, the UI in data set [8] was determined as 1.5.
`O=C1OC(c2cccc(O)c2O)C(c2ccccc2)=C1O` (stereo unspecified): the values for the IC50 (in [9]; in [10]; in the data set on Liver) were 10.3 µM, 187 µM and 129 µM, respectively.
For the compound `CC[C@H](C)[C@H](NC1=C(Br)C(=O)O[C@@H]1OC)C(=O)OC`, the inhibition at 50 µM with A549 [11] is 82.7%. The inhibition at 100 µM in the data set with A549 [12] amounted to 97.2%.
Regarding `CC1C=C(c2ccc(Cl)c(Cl)c2)C(=O)O1` (stereo unspecified), the MIC in the data set with Aspergillus fumigatus [13] was 7.6 µg/mL (≈ 31.3 µM); in the data set on Lichtheimia corymbifera [14], 7.6 µg/mL (≈ 31.3 µM); in the data set on Candida albicans [15], 31.2 µM (≈ 7.6 µg/mL); in the data set on Pichia kudriavzevii, more than 125 µM; in the data set with Candida tropicalis, more than 125 µM; with Nakaseomyces glabratus, more than 125 µM. Further, the MIC came out at 31.2 µM (≈ 7.6 µg/mL) in the data set on Trichosporon beigelii, 7.87 µM (≈ 1.91 µg/mL) in the data set on Aspergillus fumigatus [16], 7.81 µM (≈ 1.9 µg/mL) in the data set with Lichtheimia corymbifera [17] and 31.2 µM (≈ 7.6 µg/mL) in [18].
As for `CC(C)(C)C(=O)OC(CCCCCCCCCCCCC(OC(=O)C(C)(C)C)C1=CC(=O)OC1OC(=O)Nc1ccccc1)C1=CC(=O)OC1OC(=O)Nc1ccccc1` (stereo unspecified), on Phospholipase A2, the IC50 is more than 1 µM.
With `CC1(C)OC(=O)C(Oc2ccc(Br)cn2)=C1c1ccc(S(C)(=O)=O)cc1`, the ED50 came out at 0.2 mg/kg in the data set filed under Rattus norvegicus [5] and 0.86 mg/kg in the data set on Rattus norvegicus [19].
As for `O=C1OC(c2ccccc2)=C/C1=N/Nc1ccc(Br)cc1`, the CC50 at 24 h in data set [20] was less than 100 µg/mL. Further, in the data set on H5N1 subtype, the EC50 is less than 100 µg/mL.
As to `CCCC/C=C\C1=CC(C)OC1=O` (stereo unspecified), the EC50 in the data set on Berkeleyomyces basicola stood at 25 µg/mL (≈ 139 µM); in the data set with Globisporangium ultimum [21], 45 µg/mL (≈ 250 µM); with Fusarium solani it was 54 µg/mL (≈ 300 µM); with Fusarium oxysporum, 56 µg/mL (≈ 311 µM); in the data set on Rhizoctonia solani, 61 µg/mL (≈ 338 µM).
Regarding `CC(C)Cc1ccc(C2=C/C(=C\c3ccc(Cl)cc3Cl)C(=O)O2)cc1`, the inhibition in vivo at 20 mg/kg in the data set on Rattus norvegicus [22] worked out at 66.1%.
Regarding `Cc1cc(O)c2c(c1)C(c1c(O)cccc1O)OC2=O` (stereo unspecified), the MIC in the data set with Globisporangium ultimum [23] is 40 µg/mL (≈ 147 µM).
